In data set [1] the target is Pyruvate kinase PKM (Homo sapiens) (UniProt P14618). Nature of the data set: Inhibition of PKM2 (unknown origin). As to conditions: concentration not given here. Further details: concentration or dose not given beside the values.
Data set [2] has as its system CCc1nnc(SCc2ccccc2F)c2cc3sc(C)cc3n12. Nature of the data set: Binding affinity to PKM2 (unknown origin) assessed as Michaelis-constant. As to conditions: Homo sapiens; filed as activator.
Data set [3] has as its target Pyruvate kinase PKM (Homo sapiens) (UniProt P14618). The data set can be described thus: Inhibition of recombinant PKM2 (unknown origin) Asp178, Asp177, Ser362, Lys367, Hie78, Ser205, Gly128, Thr129, Tyr83, Asn75, Ile51 residues at 40 uM relative to control.

Chain of Pyruvate kinase PKM (Homo sapiens) (P14618 2-531 limits assumed): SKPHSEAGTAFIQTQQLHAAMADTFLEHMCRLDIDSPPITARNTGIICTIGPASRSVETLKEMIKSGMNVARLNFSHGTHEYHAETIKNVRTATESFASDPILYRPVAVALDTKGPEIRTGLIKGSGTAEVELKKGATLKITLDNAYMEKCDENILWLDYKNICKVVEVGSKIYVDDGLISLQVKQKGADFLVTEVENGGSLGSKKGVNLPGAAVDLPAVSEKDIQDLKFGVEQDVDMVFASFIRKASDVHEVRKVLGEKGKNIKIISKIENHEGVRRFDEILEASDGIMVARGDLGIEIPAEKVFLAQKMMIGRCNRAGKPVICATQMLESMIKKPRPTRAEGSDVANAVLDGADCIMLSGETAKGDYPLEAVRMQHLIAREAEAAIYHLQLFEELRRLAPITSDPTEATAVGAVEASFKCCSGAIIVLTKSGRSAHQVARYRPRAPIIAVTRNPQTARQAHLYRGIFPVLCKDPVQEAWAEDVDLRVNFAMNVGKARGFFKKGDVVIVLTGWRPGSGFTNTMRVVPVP
Chain of Pyruvate kinase PKM (Homo sapiens), P14618 (P14618 whole entry): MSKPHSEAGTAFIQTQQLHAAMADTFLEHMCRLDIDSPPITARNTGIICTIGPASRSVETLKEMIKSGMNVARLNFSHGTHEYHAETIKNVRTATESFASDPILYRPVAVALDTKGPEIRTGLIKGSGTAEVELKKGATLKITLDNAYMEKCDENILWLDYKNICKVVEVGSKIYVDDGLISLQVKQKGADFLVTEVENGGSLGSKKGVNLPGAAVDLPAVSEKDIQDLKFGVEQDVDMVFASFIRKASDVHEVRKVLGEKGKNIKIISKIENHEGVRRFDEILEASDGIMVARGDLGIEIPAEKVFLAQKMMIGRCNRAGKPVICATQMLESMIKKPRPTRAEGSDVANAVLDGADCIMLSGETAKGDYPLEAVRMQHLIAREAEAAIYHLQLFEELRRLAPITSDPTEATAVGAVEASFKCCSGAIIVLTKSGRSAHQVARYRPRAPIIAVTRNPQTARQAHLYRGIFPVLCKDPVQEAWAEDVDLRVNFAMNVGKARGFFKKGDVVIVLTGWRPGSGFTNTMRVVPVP

Compound `N[C@@H](Cc1c[nH]c2ccccc12)C(=O)O` displayed an inhibition in data set [1] of 65%.
Still for that read-out and setting: to `C[C@H](N)C(=O)O` belongs 100%; to `N[C@@H](CS)C(=O)O`, 20%; to `O=C(O)[C@@H]1CCCN1`, 65%.
For the compound “Pyruvate kinase PKM (Homo sapiens), P14618”, the Km in data set [2] stood at 480 µM.
For the compound `CC(C)[C@H](N)C(=O)O`, the inhibition in data set [1] worked out at 65%.
The same measure, in the same setting: the same measure for `CSCC[C@H](N)C(=O)O`: 65%.
Take `O=C(O[C@@H]1Cc2c(O)cc(O)cc2O[C@@H]1c1cc(O)c(O)c(O)c1)c1cc(O)c(O)c(O)c1`: in data set [3], the inhibition was determined as 49%.
The compound `CC[C@H](C)[C@H](N)C(=O)O` came in with an inhibition in data set [1] of 20%.
On the same count and under the same terms, to `N[C@@H](Cc1ccccc1)C(=O)O` belongs 100%; to `C[C@@H](O)[C@H](N)C(=O)O`, 20%.

One may read the inhibition as the percentage by which the read-out fell short of the control. As a reminder, the Km is the concentration of substrate that gives half-maximal velocity.

The record behind these values is ChEMBL document CHEMBL5136976, “A Perspective on Medicinal Chemistry Approaches for Targeting Pyruvate Kinase M2” (J Med Chem, 2022).
